Positions of bridges follow the written chain, without caps; N, C: chain ends. Non-standard residues stand in square brackets, D forms with d. Residues, ends and D or L forms follow the SMILES beside them. Chains are numbered I, II in the order given. *: point of attachment. NOTA = O=C(O)CN1CCN(CC(=O)O)CCN(CC(=O)*)CC1
Assays:
[1] = Ex vivo biodistribution in wild-type mice; conditions: mouse, total radioactivity, 75 min p.i., ex vivo gamma counting, mean ± SD
Description: The in vivo pharmacokinetics of the selected radioligands were first evaluated in wild-type mice by performing a whole-body biodistribution study. […] Blood and major organs were collected in tared tubes and weighed. Quantification of radioactivity in blood, organs, and other body parts was performed using an automated gamma counter equipped with a 3-inch NaI(Tl) well crystal coupled to a multichannel analyzer, mounted in a sample changer (2480 Wizard^2, Perkin Elmer, Waltham, MA, USA). Counts were corrected for background radiation, physical decay and counter dead time. Results are presented as standardized uptake values (SUV; tissue activity concentration (MBq/g)/[injected dose (MBq)/body weight (g)]).

[2] = In vivo radiometabolite analysis in plasma and urine; design: species or system mouse; conditions: wild-type mice
Description: Plasma samples were obtained by decapitation 15 min p.i. (n = 2). Blood was collected in EDTA tubes and centrifuged for 5 min at 3000× g. Subsequently, plasma was removed and diluted (1:2) with acetonitrile to precipitate all plasma proteins. After centrifugation (5 min at 3000× g), the supernatant was diluted (1:10) with water and filtered (0.22 µm) before injection on radioHPLC. Urine samples were collected 75 min p.i. (n = 3) by gently pressing on the bladder. The collected urine was filtered (0.22 µm) before injection on radioHPLC. Due to low radioactivity concentration in the plasma samples, 30 fractions of 30 s per plasma sample were collected. Radioactivity in the fractions was determined in an automated gamma counter.

[3] = PET/CT imaging in wild-type mice; assay type: in vivo, mouse; conditions: dynamic PET 0–60 min p.i., AMD3100 5 mg/kg
Description: Dynamic PET images were acquired for 60 min immediately after intravenous injection using a beta-cube PET scanner (Molecubes, Gent, Belgium). The mice were kept under gas anesthesia during the entire procedure (2.5% isoflurane in O2 at 1 L/min flow rate), with temperature and respiration monitored throughout. After PET scanning, a CT image was acquired for anatomic coregistration with an X-cube CT scanner (Molecubes, Gent, Belgium), using the ‘general’ protocol with the following parameters: 50 kVp, 480 exposures, 85 ms/projection, 100 μA tube current, rotation time 60 s. After scanning, mice were sacrificed 75 min p.i. and a whole-body biodistribution study was performed.
PET data were histogrammed into 14 frames (4 × 15 s, 4 × 1 min, 1 × 5 min, 5 × 10 min) and reconstructed into a 192 × 192 image matrix with 0.4 mm voxels using 30 iterations the native MLEM algorithm with corrections for randoms, scatter, attenuation and decay. CT Data were reconstructed using a regularized statistical (iterative) image reconstruction algorithm using non-negative least squares, using an isotropic 200 μm voxel size and scaled to Hounsfield Units (HUs) after calibration against a standard air/water phantom. […] Radiotracer uptake at 60 min, expressed as SUVmean, was the outcome measure.

[4] = tested on: U87.hCXCR4 tumor-bearing mice; assay: Ex vivo biodistribution in U87.hCXCR4 tumor-bearing mice; design: species or system mouse; conditions: 75 min p.i., mean ± SD
[5] = as above; design: species or system mouse; conditions: female, SCID (CB17.Cg-Prkdc<scid>Lyst<bg-J>/Crl), mouse, iv, total radioactivity, 75 min p.i., mean ± SD
[6] = co-injected AMD3100 5 mg/kg (157 nmol), n = 4
[7] = co-injected DV1-k-(DV3) 7 nmol, n = 3
[8] = co-injected DV1-k-(DV3) 14 nmol, n = 4
[9] = co-injected DV1-k-(DV3) 24 nmol, n = 4
[10] = SUV ratio, co-injected AMD3100 5 mg/kg (157 nmol), n = 4
[11] = SUV ratio, co-injected DV1-k-(DV3) 7 nmol, n = 3
[12] = SUV ratio, co-injected DV1-k-(DV3) 24 nmol, n = 4

CC(C)C[C@@H](N)C(=O)NCC(=O)N[C@H](C)C(=O)N[C@H](CO)C(=O)N[C@H](Cc1c[nH]c2ccccc12)C(=O)N[C@H](Cc1c[nH]cn1)C(=O)N[C@H](CCCNC(=N)N)C(=O)N1CCC[C@@H]1C(=O)N[C@H](CC(=O)O)C(=O)N[C@H](CCCCNC(=O)CN1CCN(CC(=O)O)CCN(CC(=O)O)CC1)C(=O)NCCCC[C@@H](NC(=O)[C@H]1CCCN1C(=O)[C@@H](CC(C)C)NC(=O)[C@H]1CCCN1C(=O)[C@@H](CCCNC(=N)N)NC(=O)[C@@H](CCCCN)NC(=O)[C@@H](CCC(N)=O)NC(=O)[C@@H](Cc1ccc(O)cc1)NC(=O)CNC(=O)[C@@H](CC(C)C)NC(=O)[C@@H](CS)NC(=O)[C@@H](CS)NC(=O)[C@@H](CCCCN)NC(=O)[C@@H](CC(=O)O)NC(=O)[C@H]1CCCN1C(=O)[C@@H](CCCNC(=N)N)NC(=O)[C@@H](Cc1c[nH]cn1)NC(=O)[C@@H](Cc1c[nH]c2ccccc12)NC(=O)[C@@H](CO)NC(=O)[C@@H](C)NC(=O)CNC(=O)[C@H](N)CC(C)C)C(=O)O [[^18F]AlF-NOTA-DV1-k-(DV3)] (I: H-[dL]G[dA][dS][dW][dH][dR][dP][dD][dK][dC][dC][dL]G[dY][dQ][dK][dR][dP][dL][dP][dK]-OH / II: H-[dL]G[dA][dS][dW][dH][dR][dP][dD][dK](NOTA); amide I:22-II:C)
SUV at 1.25 h ([1]; blood, + AMD3100 5 mg/kg, n: PentixaFor 1, 18F 2, 68Ga 4, 177Lu 3, read-out: blood uptake): 0.5 SUV | SUV at 1.25 h ([1]; blood, tracer alone, n: PentixaFor 3, 18F 5, 68Ga 4, 177Lu 3, read-out: blood uptake): 0.2 ± 0.1 SUV | SUV at 1.25 h ([1]; bone (femur harboring bone marrow), tracer alone, n: PentixaFor 3, 18F 5, 68Ga 4, 177Lu 3, read-out: bone uptake (femur harboring bone marrow)): 0.7 ± 0.4 SUV | SUV at 1.25 h ([1]; brain, + AMD3100 5 mg/kg, n: PentixaFor 1, 18F 2, 68Ga 4, 177Lu 3, read-out: brain uptake): 0.02 SUV | SUV at 1.25 h ([1]; brain, tracer alone, n: PentixaFor 3, 18F 5, 68Ga 4, 177Lu 3, read-out: brain uptake): 0.01 ± 0.003 SUV | SUV at 1.25 h ([1]; heart, + AMD3100 5 mg/kg, n: PentixaFor 1, 18F 2, 68Ga 4, 177Lu 3, read-out: heart uptake): 0.2 SUV | SUV at 1.25 h ([1]; heart, tracer alone, n: PentixaFor 3, 18F 5, 68Ga 4, 177Lu 3, read-out: heart uptake): 0.2 ± 0.1 SUV | SUV at 1.25 h ([1]; kidneys, + AMD3100 5 mg/kg, n: PentixaFor 1, 18F 2, 68Ga 4, 177Lu 3, read-out: kidneys uptake): 35.4 SUV | SUV at 1.25 h ([1]; kidneys, tracer alone, n: PentixaFor 3, 18F 5, 68Ga 4, 177Lu 3, read-out: kidneys uptake): 23.2 ± 3.9 SUV | SUV at 1.25 h ([1]; liver, + AMD3100 5 mg/kg, n: PentixaFor 1, 18F 2, 68Ga 4, 177Lu 3, read-out: liver uptake): 1 SUV | SUV at 1.25 h ([1]; liver, tracer alone, n: PentixaFor 3, 18F 5, 68Ga 4, 177Lu 3, read-out: liver uptake): 7.4 ± 0.5 SUV | SUV at 1.25 h ([1]; lungs, + AMD3100 5 mg/kg, n: PentixaFor 1, 18F 2, 68Ga 4, 177Lu 3, read-out: lungs uptake): 0.8 SUV | SUV at 1.25 h ([1]; lungs, tracer alone, n: PentixaFor 3, 18F 5, 68Ga 4, 177Lu 3, read-out: lungs uptake): 0.8 ± 0.2 SUV | SUV at 1.25 h ([1]; pancreas, + AMD3100 5 mg/kg, n: PentixaFor 1, 18F 2, 68Ga 4, 177Lu 3, read-out: pancreas uptake): 0.1 SUV | SUV at 1.25 h ([1]; pancreas, tracer alone, n: PentixaFor 3, 18F 5, 68Ga 4, 177Lu 3, read-out: pancreas uptake): 0.1 ± 0.02 SUV | SUV at 1.25 h ([1]; spleen, + AMD3100 5 mg/kg, n: PentixaFor 1, 18F 2, 68Ga 4, 177Lu 3, read-out: spleen uptake): 0.9 SUV | SUV at 1.25 h ([1]; spleen, tracer alone, n: PentixaFor 3, 18F 5, 68Ga 4, 177Lu 3, read-out: spleen uptake): 3.2 ± 0.8 SUV | parent (intact) radioligand in plasma ([2]; i.v., plasma 15 min p.i., radioHPLC fractions, gamma counter, n = 2): 86 ± 0.1% | parent (intact) radioligand in urine ([2]; i.v., urine 75 min p.i., radioHPLC, n = 3): 37 ± 2% | polar metabolites in plasma ([2]; plasma 15 min p.i., n = 2): 14 ± 0.1% | polar metabolites in urine ([2]; urine 75 min p.i., n = 3): 63 ± 2% | kidney uptake on co-injection of AMD3100 [3]: increased with a factor of two | liver retention on co-injection of AMD3100 [3]: completely blocked | bone uptake [4, 6]: 0.1 ± 0.04 SUV | spleen uptake [4, 6]: 0.5 ± 0.1 SUV | bone uptake ([4]; co-injected AMD3100 5 mg/kg (157 nmol), n = 4, listed as [18F]AlF-NOTA-DV1-k-(DV3)): 0.1 ± 0.04 SUV | bone uptake [4, 7]: 0.2 ± 0.04 SUV | liver uptake [4, 7]: 1.2 ± 0.1 SUV | bone uptake [4, 8]: 0.3 ± 0.1 SUV | liver uptake [4, 8]: 1.2 ± 0.4 SUV | bone uptake [4, 9]: 0.2 ± 0.04 SUV | liver uptake [4, 9]: 0.7 ± 0.1 SUV | tumor-to-blood ratio (t/blood) [4, 10]: 1.7 ± 0.5 | tumor-to-liver ratio (t/liver) [4, 10]: 0.5 ± 0.2 | tumor-to-liver ratio (t/liver) [4, 11]: 0.6 ± 0.1 | tumor-to-muscle ratio (t/muscle) [4, 11]: 5.4 ± 2.2 | tumor-to-muscle ratio (t/muscle) ([4]; SUV ratio, co-injected DV1-k-(DV3) 14 nmol, n = 4): 4.8 ± 2.1 | tumor-to-liver ratio (t/liver) [4, 12]: 0.9 ± 0.2 | tumor-to-muscle ratio (t/muscle) [4, 12]: 3.0 ± 0.4 | SUV at 1.25 h ([5]; blood, co-injected DV1-k-(DV3) 7 nmol, n = 3, read-out: blood uptake): 0.4 ± 0.2 SUV | SUV at 1.25 h ([5]; blood, co-injected DV1-k-(DV3) 14 nmol, n = 4, read-out: blood uptake): 0.5 ± 0.3 SUV | SUV at 1.25 h ([5]; blood, tracer alone (0 nmol), n = 4, read-out: blood uptake): 0.1 ± 0.1 SUV | SUV at 1.25 h ([5]; blood, with AMD3100 5 mg/kg (157 nmol), co-injected, co-injected AMD3100 5 mg/kg (157 nmol), n = 4, read-out: blood uptake): 0.3 ± 0.2 SUV | SUV at 1.25 h ([5]; bone, co-injected AMD3100 5 mg/kg (157 nmol), n = 4, read-out: bone uptake): 0.1 ± 0.04 SUV | SUV at 1.25 h ([5]; bone, co-injected DV1-k-(DV3) 7 nmol, n = 3, read-out: bone uptake): 0.2 ± 0.04 SUV | SUV at 1.25 h ([5]; bone, co-injected DV1-k-(DV3) 14 nmol, n = 4, read-out: bone uptake): 0.3 ± 0.1 SUV | SUV at 1.25 h ([5]; bone, co-injected DV1-k-(DV3) 24 nmol, n = 4, read-out: bone uptake): 0.2 ± 0.04 SUV | SUV at 1.25 h ([5]; bone, tracer alone (0 nmol), n = 4, read-out: bone uptake): 0.4 ± 0.1 SUV | SUV at 1.25 h ([5]; brain, co-injected AMD3100 5 mg/kg (157 nmol), n = 4, read-out: brain uptake): 0.01 ± 0.004 SUV | SUV at 1.25 h ([5]; brain, co-injected DV1-k-(DV3) 7 nmol, n = 3, read-out: brain uptake): 0.02 ± 0.01 SUV | SUV at 1.25 h ([5]; brain, co-injected DV1-k-(DV3) 14 nmol, n = 4, read-out: brain uptake): 0.03 ± 0.01 SUV | SUV at 1.25 h ([5]; brain, co-injected DV1-k-(DV3) 24 nmol, n = 4, read-out: brain uptake): 0.02 ± 0.01 SUV | SUV at 1.25 h ([5]; brain, tracer alone (0 nmol), n = 4, read-out: brain uptake): 0.01 ± 0.001 SUV | SUV at 1.25 h ([5]; heart, co-injected AMD3100 5 mg/kg (157 nmol), n = 4, read-out: heart uptake): 0.1 ± 0.1 SUV | SUV at 1.25 h ([5]; heart, co-injected DV1-k-(DV3) 7 nmol, n = 3, read-out: heart uptake): 0.2 ± 0.1 SUV | SUV at 1.25 h ([5]; heart, co-injected DV1-k-(DV3) 14 nmol, n = 4, read-out: heart uptake): 0.3 ± 0.1 SUV | SUV at 1.25 h ([5]; heart, co-injected DV1-k-(DV3) 24 nmol, n = 4, read-out: heart uptake): 0.2 ± 0.1 SUV | SUV at 1.25 h ([5]; heart, tracer alone (0 nmol), n = 4, read-out: heart uptake): 0.1 ± 0.04 SUV

Source: article PMC8537445, “D-Peptide-Based Probe for CXCR4-Targeted Molecular Imaging and Radionuclide Therapy” (Pharmaceutics, 2021)
